In ChEMBL document CHEMBL3991601, “The target landscape of clinical kinase drugs” (Science, 2017):
Structures can show the parent of a compound that is named as a salt. Activity calls are given as the source filed them. Cut-off read from the data, not from the text of the source, for most assays here: actives have a measured Kd and inactives only a lower limit.

Tests used:
[1] = target: T1, Structural maintenance of chromosomes protein 1A (Homo sapiens, UniProt Q14683)
T1 sequence (Q14683 whole entry): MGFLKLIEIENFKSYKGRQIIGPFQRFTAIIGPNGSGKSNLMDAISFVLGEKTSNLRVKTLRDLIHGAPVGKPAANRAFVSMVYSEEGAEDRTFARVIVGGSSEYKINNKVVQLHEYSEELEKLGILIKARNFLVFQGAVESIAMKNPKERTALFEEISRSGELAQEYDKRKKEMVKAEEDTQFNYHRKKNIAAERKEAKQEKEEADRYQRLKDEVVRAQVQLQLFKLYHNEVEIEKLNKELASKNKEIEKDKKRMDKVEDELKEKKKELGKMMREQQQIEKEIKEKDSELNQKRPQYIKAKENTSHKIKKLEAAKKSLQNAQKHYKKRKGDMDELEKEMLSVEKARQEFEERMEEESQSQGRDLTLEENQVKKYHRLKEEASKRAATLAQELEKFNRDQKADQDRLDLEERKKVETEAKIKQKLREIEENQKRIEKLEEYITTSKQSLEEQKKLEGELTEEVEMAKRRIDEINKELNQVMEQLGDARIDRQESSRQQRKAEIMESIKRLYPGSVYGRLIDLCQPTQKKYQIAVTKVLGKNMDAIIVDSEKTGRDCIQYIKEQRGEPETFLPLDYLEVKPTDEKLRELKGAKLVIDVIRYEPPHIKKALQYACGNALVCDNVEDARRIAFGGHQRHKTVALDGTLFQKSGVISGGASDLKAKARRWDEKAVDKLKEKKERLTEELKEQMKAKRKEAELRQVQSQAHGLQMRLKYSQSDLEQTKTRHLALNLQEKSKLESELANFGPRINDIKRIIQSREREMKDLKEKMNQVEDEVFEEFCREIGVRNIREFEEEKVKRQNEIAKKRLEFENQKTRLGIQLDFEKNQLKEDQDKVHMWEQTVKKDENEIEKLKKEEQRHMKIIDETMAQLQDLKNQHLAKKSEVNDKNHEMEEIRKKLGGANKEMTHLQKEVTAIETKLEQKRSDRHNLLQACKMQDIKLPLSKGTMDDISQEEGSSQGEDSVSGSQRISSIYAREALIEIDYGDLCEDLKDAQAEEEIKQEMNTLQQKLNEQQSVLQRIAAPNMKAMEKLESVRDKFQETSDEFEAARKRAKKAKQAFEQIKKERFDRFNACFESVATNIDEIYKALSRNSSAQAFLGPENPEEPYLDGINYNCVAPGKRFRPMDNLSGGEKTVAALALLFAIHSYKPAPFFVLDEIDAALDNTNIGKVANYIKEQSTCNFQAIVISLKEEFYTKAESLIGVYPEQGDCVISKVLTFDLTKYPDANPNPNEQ

Ephrin type-B receptor 2 = target: T2, Ephrin type-B receptor 2 (Homo sapiens, UniProt P29323)
T2 sequence (P29323 whole entry): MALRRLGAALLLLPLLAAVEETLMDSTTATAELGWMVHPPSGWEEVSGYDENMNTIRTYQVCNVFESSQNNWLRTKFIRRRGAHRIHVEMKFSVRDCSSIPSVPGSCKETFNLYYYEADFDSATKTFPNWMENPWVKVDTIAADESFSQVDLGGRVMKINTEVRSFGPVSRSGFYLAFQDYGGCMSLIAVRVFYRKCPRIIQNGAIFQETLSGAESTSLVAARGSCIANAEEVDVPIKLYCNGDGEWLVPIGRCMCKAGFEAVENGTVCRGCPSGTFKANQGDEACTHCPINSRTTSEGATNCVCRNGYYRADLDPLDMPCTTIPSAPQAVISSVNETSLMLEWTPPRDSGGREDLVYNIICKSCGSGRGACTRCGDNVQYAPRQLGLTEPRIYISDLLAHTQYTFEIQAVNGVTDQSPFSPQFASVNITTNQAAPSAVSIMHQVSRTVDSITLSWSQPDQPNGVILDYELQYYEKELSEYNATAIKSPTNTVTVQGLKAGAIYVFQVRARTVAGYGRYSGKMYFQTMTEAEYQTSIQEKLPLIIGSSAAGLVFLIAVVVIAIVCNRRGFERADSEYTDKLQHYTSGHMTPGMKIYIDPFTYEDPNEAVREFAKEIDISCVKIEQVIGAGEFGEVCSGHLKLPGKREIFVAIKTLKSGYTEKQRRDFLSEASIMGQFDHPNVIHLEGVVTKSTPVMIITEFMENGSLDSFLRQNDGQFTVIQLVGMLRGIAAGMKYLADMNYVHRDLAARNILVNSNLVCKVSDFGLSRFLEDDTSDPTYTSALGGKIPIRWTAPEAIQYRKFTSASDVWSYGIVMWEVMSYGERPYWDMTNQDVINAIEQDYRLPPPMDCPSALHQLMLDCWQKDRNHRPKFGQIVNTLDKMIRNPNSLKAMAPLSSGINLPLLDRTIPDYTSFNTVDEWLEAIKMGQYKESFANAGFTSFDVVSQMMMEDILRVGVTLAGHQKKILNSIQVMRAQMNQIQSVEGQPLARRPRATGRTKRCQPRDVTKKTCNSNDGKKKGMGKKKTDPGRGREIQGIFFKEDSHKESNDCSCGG

[2] = target: T3, Calcium/calmodulin-dependent protein kinase type IV (Homo sapiens, UniProt Q16566)
T3 sequence (Q16566 whole entry): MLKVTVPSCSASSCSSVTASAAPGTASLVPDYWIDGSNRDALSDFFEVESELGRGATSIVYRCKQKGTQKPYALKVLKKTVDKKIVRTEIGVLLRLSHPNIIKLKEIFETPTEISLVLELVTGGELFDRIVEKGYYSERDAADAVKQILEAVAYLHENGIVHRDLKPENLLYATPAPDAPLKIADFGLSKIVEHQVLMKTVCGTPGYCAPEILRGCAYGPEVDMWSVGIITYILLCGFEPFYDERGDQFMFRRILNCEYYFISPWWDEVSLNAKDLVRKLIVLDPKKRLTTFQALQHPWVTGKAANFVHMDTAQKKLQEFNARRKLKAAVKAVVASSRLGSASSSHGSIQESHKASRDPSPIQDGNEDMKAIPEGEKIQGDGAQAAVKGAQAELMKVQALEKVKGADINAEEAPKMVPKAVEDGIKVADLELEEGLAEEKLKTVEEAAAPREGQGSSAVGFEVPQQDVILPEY
Note: in the data inactive means no Kd found up to 30 µM.

Row | Structure (SMILES) | Kd [1] | Kd (Ephrin type-B receptor 2) | Kd [2]
1 | C[C@@H](Oc1cc(C(=O)Nc2ccc(C(=O)N3CCN(C)CC3)cc2)nnc1N)c1c(Cl)ccc(F)c1Cl | > 30 µM (inactive) | > 30 µM (inactive) | > 30 µM (inactive)
2 | C[C@H]1CNCCCN1S(=O)(=O)c1cccc2cncc(F)c12 | > 30 µM (inactive) | > 30 µM (inactive) | > 30 µM (inactive)
3 | CC(=O)c1cnc2ccc(-c3cc(Cl)c(O)c(Cl)c3)nc2c1N[C@H]1CC[C@H](CN(C)C)CC1 | > 30 µM (inactive) | 0.149 µM (active) | > 30 µM (inactive)
4 | CCNC(=O)C#Cc1ccc2c(c1)NC(=O)/C2=C(\Nc1ccc(CN(C)C)cc1)c1ccccc1 | > 30 µM (inactive) | > 30 µM (inactive) | > 30 µM (inactive)
5 | C=CC(=O)N1CCC[C@H](n2c(=O)n(-c3ccc(Oc4ccccc4)cc3)c3c(N)ncnc32)C1 | > 30 µM (inactive) | > 30 µM (inactive) | > 30 µM (inactive)
6 | Cc1nc2cc(-c3nn(C(C)C)c4ncnc(N)c34)ccc2o1 | > 30 µM (inactive) | > 30 µM (inactive) | 5.96 µM (active)
7 | COCc1c(-c2ccc(NC(=O)Nc3cc(C(F)(F)F)ccc3F)c(F)c2)c2c(N)ncnn2c1CN1CCOCC1 | > 30 µM (inactive) | > 30 µM (inactive) | > 30 µM (inactive)
8 | Nc1ncnc2c1c(-c1cccc(OCc3ccccc3)c1)cn2[C@H]1C[C@@H](CN2CCC2)C1 [AEW-541] | > 30 µM (inactive) | > 30 µM (inactive) | > 30 µM (inactive)
9 | COc1cc(Nc2ncc3c(n2)-c2ccc(Cl)cc2C(c2c(F)cccc2OC)=NC3)ccc1C(=O)O [ALISERTIB] | > 30 µM (inactive) | > 30 µM (inactive) | > 30 µM (inactive)
10 | Cc1nc(NC(=O)N2CCC[C@H]2C(N)=O)sc1-c1ccnc(C(C)(C)C(F)(F)F)c1 [ALPELISIB] | > 30 µM (inactive) | > 30 µM (inactive) | 
11 | Cc1csc(-c2nnc(Nc3ccc(Oc4ncccc4-c4ccnc(N)n4)cc3)c3ccccc23)c1 [AMG-900] | > 30 µM (inactive) | > 30 µM (inactive) | 1.82 µM (active)
12 | O=C(Nc1c[nH]nc1-c1nc2cc(CN3CCOCC3)ccc2[nH]1)NC1CC1 [AT-9283] | > 30 µM (inactive) | > 30 µM (inactive) | > 30 µM (inactive)
13 | C=CC(=O)Nc1cc2c(Nc3ccc(F)c(Cl)c3)ncnc2cc1C#CC(C)(C)N1CCN(C)CC1 [AV-412 FREE BASE] | > 30 µM (inactive) | > 30 µM (inactive) | 
14 | CNC(=O)c1ccccc1Sc1ccc2c(/C=C/c3ccccn3)n[nH]c2c1 [AXITINIB] | > 30 µM (inactive) |  | 
15 | COc1cc([C@@H]2c3cc4c(cc3[C@H](O)[C@H]3COC(=O)[C@@H]23)OCO4)cc(OC)c1OC [AXL-1717] | > 30 µM (inactive) | > 30 µM (inactive) | > 30 µM (inactive)
16 | NC(=O)Nc1cc(-c2cccc(F)c2)sc1C(=O)N[C@H]1CCCNC1 [AZD-7762] |  | > 30 µM (inactive) | > 30 µM (inactive)
17 | Cc1cc(C(=O)NOCCO)c(Nc2ccc(I)cc2F)n(C)c1=O [AZD-8330] | > 30 µM (inactive) | > 30 µM (inactive) | > 30 µM (inactive)

Row | Structure (SMILES) | Kd [1] | Kd (Ephrin type-B receptor 2) | Kd [2]
18 | Cn1cnc2c(F)c(Nc3ccc(Br)cc3F)c(C(=O)NOCCO)cc21 [BINIMETINIB] | > 30 µM (inactive) | > 30 µM (inactive) | > 30 µM (inactive)
19 | CCn1c(C(=O)N(C2CC2)C2CC2)cc2c3c(ncn3C)c(Nc3cc(C)n(C)n3)nc21 [BMS-911543] | > 30 µM (inactive) | > 30 µM (inactive) | > 30 µM (inactive)
20 | COc1cc2ncnc(Oc3cccc(NC(=O)Nc4cc(C(C)(C)C(F)(F)F)on4)c3)c2cc1OC [CEP-32496] | > 30 µM (inactive) | > 30 µM (inactive) | > 30 µM (inactive)
21 | Cc1cc(Nc2ncc(Cl)c(Nc3ccccc3S(=O)(=O)C(C)C)n2)c(OC(C)C)cc1C1CCNCC1 [CERITINIB] | > 30 µM (inactive) | > 30 µM (inactive) | 0.635 µM (active)
22 | COc1c(OCCCN2CCOCC2)ccc2c1N=C(NC(=O)c1cnc(N)nc1)N1CCN=C21 [COPANLISIB] | > 30 µM (inactive) | > 30 µM (inactive) | > 30 µM (inactive)
23 | COCC(=O)NC/C=C/c1ccc2ncnc(Nc3ccc(Oc4ccc(C)nc4)c(C)c3)c2c1 [CP-724714] | > 30 µM (inactive) | > 30 µM (inactive) | > 30 µM (inactive)
24 | C#Cc1cccc(Nc2ncnc3cc(OC)c(OCCCCCCC(=O)NO)cc23)c1 [CUDC-101] |  | > 30 µM (inactive) | > 30 µM (inactive)
25 | CCS(=O)(=O)N1CCN(c2ccc(Nc3ncc(C(N)=O)c(NC4CC4)n3)cc2)CC1 [Cerdulatinib Hydrochloride] | > 30 µM (inactive) | > 30 µM (inactive) | > 30 µM (inactive)
26 | CC(C)(C)c1nc(-c2cccc(NS(=O)(=O)c3c(F)cccc3F)c2F)c(-c2ccnc(N)n2)s1 [DABRAFENIB] | > 30 µM (inactive) | > 30 µM (inactive) | 
27 | Cn1cc(C2=C(c3cn(C4CCN(Cc5ccccn5)CC4)c4ccccc34)C(=O)NC2=O)c2ccccc21 [ENZASTAURIN] | > 30 µM (inactive) |  | 
28 | Cc1nc2cc(-n3ncc(C(=O)c4cc5ccccc5[nH]4)c3N)ccc2[nH]1 [FGFR INHIBITOR DEBIO 1347] | > 30 µM (inactive) | > 30 µM (inactive) | 
29 | O=C(Nc1nc2cccc(-c3ccc(CN4CCS(=O)(=O)CC4)cc3)n2n1)C1CC1 [FILGOTINIB] | > 30 µM (inactive) | > 30 µM (inactive) | > 30 µM (inactive)
30 | C[C@@H](Oc1cc(-n2cnc3ccc(CN4CCN(C)CC4)cc32)sc1C(N)=O)c1ccccc1C(F)(F)F [GSK-461364] | > 30 µM (inactive) |  | 
31 | O=C(NOCCO)c1cc(CN2OCCCC2=O)c(F)c(F)c1Nc1ccc(I)cc1F [RO-4987655] | > 30 µM (inactive) |  | 
32 | N#CC[C@H](C1CCCC1)n1cc(-c2ncnc3[nH]ccc23)cn1 [RUXOLITINIB] | > 30 µM (inactive) |  | 
33 | Cn1cc(-c2cnn3c(N)c(Br)c([C@@H]4CCCNC4)nc23)cn1 [SCH-900776] |  | > 30 µM (inactive) | > 30 µM (inactive)
34 | Cn1ncc(Cl)c1-c1cc(C(=O)N[C@H](CN)Cc2ccc(F)c(F)c2)oc1Cl [UPROSERTIB] |  | > 30 µM (inactive) | 
